Source: US20100119483A1, “PEPTIDE VIRAL ENTRY INHIBITORS” (Schering Corporation, priority 2004, published 2010)
Values joined by “and” are separate entries in the source; they are usually repeats but may differ in a detail not shown here. Identical values can stand only once.

Test system: HCV pseudoparticles
Assay: HCV pseudoparticle (HCVpp) entry assay in Huh7 hepatoma cells, luciferase readout
Assay type: cell-based, hepatitis C virus
Settings: for % of control at ~30 uM: percentage of hepatitis C virus cellular entry at 30 μM peptide vs uninhibited control; for viral entry as a percentage of the uninhibited control: HCV entry, duplicates
Procedure: HCV pseudotype particle generation. Single cycle HCV pseudoparticles are composed of a replication-defective HIV genome and HCV envelope proteins. These pseudoparticles were made by transfecting 293T cells with 5 ug of each pNL43E-R-luc (Chen et al., J. Virol. 68(2):654-60 (1994)) and plasmid expressing HCV envelope proteins pCMV/E1-2 with profection transfection kit from Promega (Madison, Wis.). The medium was refreshed 12-24 hours after transfection and supernatant was collected 48 hours after transfection. The supernatant from a transfection of only pNL43E-R-luc was used each time as a control for non specific entry events.
Infection of hepatoma cell lines with HCV pseudotype particles and screen for inhibitory peptides. The hepatoma cells, Huh7, was seeded at 8000 cells in 90 ul medium in 96-well plate. In the case of the inhibitor screen, the inhibitor was incubated with cells for one hour at 37° C. and then 50 ul viral supernatant was added to the cells 24 hours after seeding. The viral stock was pre-tittered and diluted to yield approximately 10,000 to 20,000 RLU. The cells were incubated at 37° C. with 5% CO2 for additional 72 hours and were harvested for luciferase assay. Peptide stocks were prepared in 100% DMSO at 10 mg/ml and were first screened at 100 ug/ml and then a dose responsive curve was generated with 10 points 3-fold titration starting from 100 ug/ml.
The peptide of SEQ ID NO: 77 was first serial diluted by the factor of 3 in 100% DMSO from 100 ug/ml and then transferred to the assay plates at 100-fold dilution. The peptide was first incubated with cells and HCVpp (A) or HIVpp (B), respectively, for 30 minutes at […] in this experiment. Then, the medium containing the peptide was removed from the cells and virus with peptide was added to the cells. Cells were incubated for 72 hours and then were harvested for luciferase assay. Two separate trials were performed.
In addition, the peptide of SEQ ID NO: 77 was mutated at several positions and assayed in the HCV entry assay discussed above. […] The assays were performed essentially as described above.

[1] = 0.1 nM of peptide (printed for three rows), two values per peptide and row
[2] = 0.3 nM of peptide, two values per peptide
[3] = 1 nM of peptide, two values per peptide
[4] = 3 nM of peptide, two values per peptide
[5] = 10 nM of peptide, two values per peptide
[6] = 30 nM of peptide, two values per peptide
[7] = 100 nM of peptide, two values per peptide
[8] = 300 nM of peptide, two values per peptide
[9] = 10000 nM of peptide, two values per peptide
[10] = 30000 nM of peptide, two values per peptide

Substance: A-I-K-W-E-Y-V-L-L-L-F-K-L (AIKWEYVLLLFKL; HCV peptide) [SEQ ID NO: 136]
- % control (HCVpp entry), lysine scanning [1]: 67 % control and 81 % control and 82 % control and 94 % control and 116 % control and 108 % control
- % control (HCVpp entry), lysine scanning [2]: 103 % control and 70 % control
- % control (HCVpp entry), lysine scanning [3]: 71 % control and 90 % control
- % control (HCVpp entry), lysine scanning [4]: 76 % control and 98 % control
- % control (HCVpp entry), lysine scanning [5]: 80 % control and 71 % control
- % control (HCVpp entry), lysine scanning [6]: 65 % control and 84 % control
- % control (HCVpp entry), lysine scanning [7]: 98 % control and 84 % control
- % control (HCVpp entry), lysine scanning [8]: 81 % control and 84 % control
- % control (HCVpp entry), lysine scanning [9]: 34 % control and 68 % control

Substance: A-I-K-W-A-Y-V-L-L-L-F-L-L (AIKWAYVLLLFLL; HCV peptide) [SEQ ID NO: 90, Ala-scan]
- % control (HCVpp entry), alanine scanning [1]: 105 % control and 98 % control and 82 % control and 106 % control and 116 % control and 96 % control
- % control (HCVpp entry), alanine scanning [2]: 73 % control and 94 % control
- % control (HCVpp entry), alanine scanning [3]: 66 % control and 98 % control
- % control (HCVpp entry), alanine scanning [4]: 106 % control and 81 % control
- % control (HCVpp entry), alanine scanning [5]: 66 % control and 46 % control
- % control (HCVpp entry), alanine scanning [6]: 69 % control and 63 % control
- % control (HCVpp entry), alanine scanning [7]: 51 % control and 43 % control
- % control (HCVpp entry), alanine scanning [8]: 55 % control
- % of control at ~30 uM: 13%

Substance: LLFLLLVYEWKIA [retro-inverso]
- viral entry as a percentage of the uninhibited control (0.1 nM of peptide (three lines)): 97%
- viral entry as a percentage of the uninhibited control (0.3 nM of peptide, 0.0003 µM): 91% and 81% and 74% and 99% and 126% and 117%
- viral entry as a percentage of the uninhibited control (1 nM of peptide, 0.001 µM): 83% and 72% and 91% and 115% and 106%
- viral entry as a percentage of the uninhibited control (3 nM of peptide, 0.003 µM): 88% and 68% and 78% and 92% and 86% and 98%
- viral entry as a percentage of the uninhibited control (10 nM of peptide, 0.01 µM): 66% and 100% and 76% and 84% and 128% and 104%
- viral entry as a percentage of the uninhibited control (30 nM of peptide, 0.03 µM): 68% and 62% and 76% and 113% and 121% and 110%
- viral entry as a percentage of the uninhibited control (30000 nM of peptide, 30 µM): 107% and 87% and 103% and 125% and 95%
- activity compared to the wild type 13-mer peptide (HCVpp entry inhibition, in words): completely lost activity

Substance: A-K-K-W-E-Y-V-L-L-L-E-L-L [SEQ ID NO: 102]
- % control (HCVpp entry), lysine scanning [1]: 104 % control and 102 % control and 89 % control and 108 % control and 98 % control and 106 % control
- % control (HCVpp entry), lysine scanning [2]: 141 % control and 107 % control
- % control (HCVpp entry), lysine scanning [3]: 96 % control and 83 % control
- % control (HCVpp entry), lysine scanning [4]: 70 % control and 66 % control
- % control (HCVpp entry), lysine scanning [5]: 67 % control and 62 % control
- % control (HCVpp entry), lysine scanning [6]: 33 % control and 41 % control
- % control (HCVpp entry), lysine scanning [7]: 16 % control and 25 % control
- % control (HCVpp entry), lysine scanning [8]: 29 % control and 23 % control
- % of control at ~30 uM: 5%

Substance: A-I-K-W-E-Y-V-L-A-L-F-L-L (AIKWEYVLALFLL; HCV peptide) [SEQ ID NO: 94, Ala-scan]
- % control (HCVpp entry), alanine scanning [1]: 99 % control and 96 % control and 79 % control and 101 % control and 115 % control and 105 % control
- % control (HCVpp entry), alanine scanning [2]: 104 % control and 92 % control
- % control (HCVpp entry), alanine scanning [3]: 81 % control and 82 % control
- % control (HCVpp entry), alanine scanning [4]: 58 % control and 89 % control
- % control (HCVpp entry), alanine scanning [5]: 79 % control and 86 % control
- % control (HCVpp entry), alanine scanning [6]: 58 % control and 48 % control
- % control (HCVpp entry), alanine scanning [7]: 45 % control and 41 % control
- % control (HCVpp entry), alanine scanning [8]: 42 % control and 33 % control
- % control (HCVpp entry), alanine scanning [9]: 36 % control and 34 % control
- % control (HCVpp entry), alanine scanning [10]: 14 % control and 28 % control
- % of control at ~30 uM: 17%

Substance: A-I-K-W-G-Y-V-L-L-L-F-L-L (AIKWGYVLLLFLL; HCV peptide) [SEQ ID NO: 84, Gly-scan]
- % control (HCVpp entry), glycine scanning (0.00003 uM of peptide, two values per peptide and row): 118 % control and 84 % control and 87 % control and 110 % control
- % control (HCVpp entry), glycine scanning (0.0001 uM of peptide, two values per peptide): 62 % control and 75 % control
- % control (HCVpp entry), glycine scanning (0.0003 uM of peptide, two values per peptide): 91 % control and 81 % control
- % control (HCVpp entry), glycine scanning (0.001 uM of peptide, two values per peptide): 74 % control and 73 % control
- % control (HCVpp entry), glycine scanning (0.003 uM of peptide, two values per peptide): 70 % control
- % control (HCVpp entry), glycine scanning (0.01 uM of peptide, two values per peptide): 72 % control and 53 % control
- % control (HCVpp entry), glycine scanning (0.03 uM of peptide, two values per peptide): 62 % control and 52 % control
- % control (HCVpp entry), glycine scanning (0.1 uM of peptide, two values per peptide): 41 % control and 39 % control
- % control (HCVpp entry), glycine scanning (0.3 uM of peptide, two values per peptide): 37 % control and 57 % control
- % control (HCVpp entry), glycine scanning (30 uM of peptide, two values per peptide): 22 % control and 38 % control
- % of control at ~30 uM: 19%

Substance: A-I-K-W-E-Y-V-P-L-L-F-L-L (AIKWEYVPLLFLL; HCV peptide) [SEQ ID NO: 122]
- % control (HCVpp entry), proline scanning [1]: 81 % control and 70 % control and 89 % control and 86 % control and 115 % control and 111 % control
- % control (HCVpp entry), proline scanning [2]: 105 % control and 83 % control
- % control (HCVpp entry), proline scanning [3]: 73 % control and 100 % control
- % control (HCVpp entry), proline scanning [4]: 106 % control and 80 % control
- % control (HCVpp entry), proline scanning [5]: 85 % control and 67 % control
- % control (HCVpp entry), proline scanning [6]: 70 % control and 113 % control
- % control (HCVpp entry), proline scanning [7]: 75 % control and 59 % control
- % control (HCVpp entry), proline scanning [8]: 76 % control and 53 % control
- % control (HCVpp entry), proline scanning [9]: 54 % control and 43 % control

Substance: A-I-K-W-E-Y-V-L-L-L-F-L-L [SEQ ID NO: 106]
- HCVpp % inh (truncated peptides tested at 50 uM in 1% DMSO): 92%

Substance: A-I-K-W-E-Y-V-L-L-L-F-A-L (AIKWEYVLLLFAL; HCV peptide) [SEQ ID NO: 96, Ala-scan]
- % control (HCVpp entry), alanine scanning [1]: 95 % control and 86 % control and 100 % control and 96 % control and 72 % control and 132 % control
- % control (HCVpp entry), alanine scanning [2]: 91 % control and 98 % control
- % control (HCVpp entry), alanine scanning [3]: 124 % control and 78 % control
- % control (HCVpp entry), alanine scanning [4]: 76 % control and 85 % control
- % control (HCVpp entry), alanine scanning [5]: 58 % control and 73 % control
- % control (HCVpp entry), alanine scanning [6]: 63 % control and 67 % control
- % control (HCVpp entry), alanine scanning [7]: 24 % control and 41 % control
- % control (HCVpp entry), alanine scanning [8]: 36 % control and 26 % control
- % control (HCVpp entry), alanine scanning [9]: 33 % control and 20 % control
- % control (HCVpp entry), alanine scanning [10]: 31 % control
- % of control at ~30 uM: 24%

Substance: A-I-K-W-E-Y-V-L-L-L-F-L-A [SEQ ID NO: 97]
- % control (HCVpp entry), alanine scanning [1]: 80 % control and 101 % control and 105 % control and 102 % control and 95 % control and 97 % control
- % control (HCVpp entry), alanine scanning [2]: 72 % control and 102 % control
- % control (HCVpp entry), alanine scanning [3]: 76 % control and 92 % control
- % control (HCVpp entry), alanine scanning [4]: 72 % control and 92 % control
- % control (HCVpp entry), alanine scanning [5]: 79 % control and 69 % control
- % control (HCVpp entry), alanine scanning [6]: 55 % control and 80 % control
- % control (HCVpp entry), alanine scanning [7]: 46 % control and 51 % control
- % control (HCVpp entry), alanine scanning [8]: 30 % control and 47 % control
- % control (HCVpp entry), alanine scanning [9]: 19 % control and 37 % control
- % control (HCVpp entry), alanine scanning [10]: 53 % control and 50 % control
- % of control at ~30 uM: 24%

Substance: A-I-K-W-E-Y-V-L-P-L-F-L-L (AIKWEYVLPLFLL; HCV peptide) [SEQ ID NO: 123]
- % control (HCVpp entry), proline scanning [1]: 78 % control and 81 % control and 104 % control and 86 % control and 117 % control and 94 % control
- % control (HCVpp entry), proline scanning [2]: 80 % control and 91 % control
- % control (HCVpp entry), proline scanning [3]: 108 % control and 77 % control
- % control (HCVpp entry), proline scanning [4]: 92 % control and 78 % control
- % control (HCVpp entry), proline scanning [5]: 78 % control and 76 % control
- % control (HCVpp entry), proline scanning [6]: 74 % control and 75 % control
- % control (HCVpp entry), proline scanning [7]: 72 % control and 61 % control
- % control (HCVpp entry), proline scanning [8]: 41 % control and 44 % control
- % control (HCVpp entry), proline scanning [9]: 61 % control and 51 % control
- % control (HCVpp entry), proline scanning [10]: 31 % control and 49 % control
